Test results from BindingDB's records for doi:10.1124/jpet.301.1.37 (National Institutes of Health, 2002).
pKi: −log10 of the molar value. Several values for one entry are separate records, joined by “and”; a condition that tells them apart may be missing. Identical values can stand only once.

Experiments:
VIP peptides [1] = target: T1, VIP peptides (Cavia porcellus, UniProt P04566)
T1 sequence (P04566 whole entry): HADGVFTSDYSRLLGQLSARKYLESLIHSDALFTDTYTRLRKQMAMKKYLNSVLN

VIP peptides [2] = target: T2, VIP peptides (Rattus norvegicus, UniProt P01283)
T2 sequence (P01283 whole entry): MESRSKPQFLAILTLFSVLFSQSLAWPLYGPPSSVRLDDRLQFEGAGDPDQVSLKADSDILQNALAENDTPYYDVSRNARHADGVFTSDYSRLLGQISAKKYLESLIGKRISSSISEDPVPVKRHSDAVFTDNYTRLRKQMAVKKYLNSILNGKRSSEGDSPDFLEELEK

VIP peptides [3] = target: T3, VIP peptides (Homo sapiens, UniProt P01282)
T3 sequence (P01282 whole entry): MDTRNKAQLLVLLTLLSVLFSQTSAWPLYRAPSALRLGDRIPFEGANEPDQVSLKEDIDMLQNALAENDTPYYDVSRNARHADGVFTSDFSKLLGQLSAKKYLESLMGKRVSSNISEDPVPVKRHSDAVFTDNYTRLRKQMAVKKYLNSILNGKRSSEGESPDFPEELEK

H-HSDAVFTDNYARLRKQMAVKKYLNSILN-NH2 [VIP Ala11]
pKi (VIP peptides [1]): 8.62 | pKi (VIP peptides [2]): 9.47 and 8.72 and 9.38

CC[C@@H](C)[C@@H](NC(=O)[C@H](CO)NC(=O)[C@H](CC(N)=O)NC(=O)[C@H](CC(C)C)NC(=O)[C@H](Cc1ccc(O)cc1)NC(=O)[C@H](CCCCN)NC(=O)[C@H](CCCCN)NC(=O)[C@@H](NC(=O)[C@H](C)NC(=O)[C@H](CCSC)NC(=O)[C@H](CCC(N)=O)NC(=O)[C@H](CCCCN)NC(=O)[C@H](CCCN=C(N)N)NC(=O)[C@H](CC(C)C)NC(=O)[C@H](CCCN=C(N)N)NC(=O)[C@@H](NC(=O)[C@H](Cc1ccc(O)cc1)NC(=O)[C@H](CC(N)=O)NC(=O)[C@H](CC(=O)O)NC(=O)[C@@H](NC(=O)[C@H](Cc1ccccc1)NC(=O)[C@@H](NC(=O)[C@H](C)NC(=O)[C@H](CC(=O)O)NC(=O)[C@H](CO)NC(=O)[C@@H](N)Cc1cnc[nH]1)C(C)C)[C@@H](C)O)[C@@H](C)O)C(C)C)C(=O)N[C@@H](CC(C)C)C(=O)N[C@@H](CC(N)=O)C(N)=O [VIP [D-Ile26]]
pKi (VIP peptides [1]): 7.14 | pKi (VIP peptides [3]): 7.42 and 7.31 and 7.48

H-HSDAVFTDNATRLRKQMAVKKYLNSILN-NH2 [VIP Ala10]
pKi (VIP peptides [1]): 7.26 | pKi (VIP peptides [3]): 7.21 and 7.25 and 7.35

CC[C@H](C)[C@H](NC(=O)[C@H](CO)NC(=O)[C@H](CC(N)=O)NC(=O)[C@H](CC(C)C)NC(=O)[C@H](Cc1ccc(O)cc1)NC(=O)[C@H](CCCCN)NC(=O)[C@@H](CCCCN)NC(=O)[C@@H](NC(=O)[C@H](C)NC(=O)[C@H](CCSC)NC(=O)[C@H](CCC(N)=O)NC(=O)[C@H](CCCCN)NC(=O)[C@H](CCCN=C(N)N)NC(=O)[C@H](CC(C)C)NC(=O)[C@H](CCCN=C(N)N)NC(=O)[C@@H](NC(=O)[C@H](Cc1ccc(O)cc1)NC(=O)[C@H](CC(N)=O)NC(=O)[C@H](CC(=O)O)NC(=O)[C@@H](NC(=O)[C@H](Cc1ccccc1)NC(=O)[C@@H](NC(=O)[C@H](C)NC(=O)[C@H](CC(=O)O)NC(=O)[C@H](CO)NC(=O)[C@@H](N)Cc1cnc[nH]1)C(C)C)[C@@H](C)O)[C@@H](C)O)C(C)C)C(=O)N[C@@H](CC(C)C)C(=O)N[C@@H](CC(N)=O)C(N)=O [VIP [D-Lys20]]
pKi (VIP peptides [1]): 7.76 | pKi (VIP peptides [3]): 8.38 and 7.65 and 7.77

CC[C@H](C)[C@H](NC(=O)[C@H](CO)NC(=O)[C@H](CC(N)=O)NC(=O)[C@H](CC(C)C)NC(=O)[C@H](Cc1ccc(O)cc1)NC(=O)[C@H](CCCCN)NC(=O)[C@H](CCCCN)NC(=O)[C@@H](NC(=O)[C@H](C)NC(=O)[C@H](CCSC)NC(=O)[C@H](CCC(N)=O)NC(=O)[C@H](CCCCN)NC(=O)[C@H](CCCN=C(N)N)NC(=O)[C@H](CC(C)C)NC(=O)[C@H](CCCN=C(N)N)NC(=O)[C@@H](NC(=O)[C@H](Cc1ccc(O)cc1)NC(=O)[C@H](CC(N)=O)NC(=O)[C@H](CC(=O)O)NC(=O)[C@@H](NC(=O)[C@H](Cc1ccccc1)NC(=O)[C@@H](NC(=O)[C@H](C)NC(=O)[C@H](CC(=O)O)NC(=O)[C@H](CO)NC(=O)[C@H](N)Cc1cnc[nH]1)C(C)C)[C@@H](C)O)[C@@H](C)O)C(C)C)C(=O)N[C@@H](CC(C)C)C(=O)N[C@@H](CC(N)=O)C(N)=O [VIP [D-His1]]
pKi (VIP peptides [1]): 7.65 | pKi (VIP peptides [3]): 9.13 and 8.39 and 8.43

CC[C@H](C)[C@H](NC(=O)[C@H](CO)NC(=O)[C@@H](CC(N)=O)NC(=O)[C@H](CC(C)C)NC(=O)[C@H](Cc1ccc(O)cc1)NC(=O)[C@H](CCCCN)NC(=O)[C@H](CCCCN)NC(=O)[C@@H](NC(=O)[C@H](C)NC(=O)[C@H](CCSC)NC(=O)[C@H](CCC(N)=O)NC(=O)[C@H](CCCCN)NC(=O)[C@H](CCCN=C(N)N)NC(=O)[C@H](CC(C)C)NC(=O)[C@H](CCCN=C(N)N)NC(=O)[C@@H](NC(=O)[C@H](Cc1ccc(O)cc1)NC(=O)[C@H](CC(N)=O)NC(=O)[C@H](CC(=O)O)NC(=O)[C@@H](NC(=O)[C@H](Cc1ccccc1)NC(=O)[C@@H](NC(=O)[C@H](C)NC(=O)[C@H](CC(=O)O)NC(=O)[C@H](CO)NC(=O)[C@@H](N)Cc1cnc[nH]1)C(C)C)[C@@H](C)O)[C@@H](C)O)C(C)C)C(=O)N[C@@H](CC(C)C)C(=O)N[C@@H](CC(N)=O)C(N)=O [VIP [D-Asn24]]
pKi (VIP peptides [1]): 7.22 | pKi (VIP peptides [3]): 8.59 and 7.93 and 7.90

CC[C@H](C)[C@H](NC(=O)[C@H](CO)NC(=O)[C@H](CC(N)=O)NC(=O)[C@H](CC(C)C)NC(=O)[C@H](Cc1ccc(O)cc1)NC(=O)[C@H](CCCCN)NC(=O)[C@H](CCCCN)NC(=O)[C@@H](NC(=O)[C@H](C)NC(=O)[C@H](CCSC)NC(=O)[C@H](CCC(N)=O)NC(=O)[C@H](CCCCN)NC(=O)[C@H](CCCN=C(N)N)NC(=O)[C@H](CC(C)C)NC(=O)[C@H](CCCN=C(N)N)NC(=O)[C@@H](NC(=O)[C@H](Cc1ccc(O)cc1)NC(=O)[C@H](CC(N)=O)NC(=O)[C@H](CC(=O)O)NC(=O)[C@@H](NC(=O)[C@H](Cc1ccccc1)NC(=O)[C@@H](NC(=O)[C@H](C)NC(=O)[C@H](CC(=O)O)NC(=O)[C@H](CO)NC(=O)[C@@H](N)Cc1cnc[nH]1)C(C)C)[C@@H](C)O)[C@@H](C)O)C(C)C)C(=O)N[C@@H](CC(C)C)C(=O)N[C@@H](CC(N)=O)C(=O)O [CAS_37221-79-7]
pKi (VIP peptides [1]): 8.60 | pKi (VIP peptides [3]): 8.77 and 8.80

CC[C@H](C)[C@H](NC(=O)[C@H](CO)NC(=O)[C@H](CC(N)=O)NC(=O)[C@H](CC(C)C)NC(=O)[C@H](Cc1ccc(O)cc1)NC(=O)[C@H](CCCCN)NC(=O)[C@H](CCCCN)NC(=O)[C@@H](NC(=O)[C@H](C)NC(=O)[C@H](CCSC)NC(=O)[C@H](CCC(N)=O)NC(=O)[C@H](CCCCN)NC(=O)[C@H](CCCN=C(N)N)NC(=O)[C@H](CC(C)C)NC(=O)[C@H](CCCN=C(N)N)NC(=O)[C@H](NC(=O)[C@H](Cc1ccc(O)cc1)NC(=O)[C@H](CC(N)=O)NC(=O)[C@H](CC(=O)O)NC(=O)[C@@H](NC(=O)[C@H](Cc1ccccc1)NC(=O)[C@@H](NC(=O)[C@H](C)NC(=O)[C@H](CC(=O)O)NC(=O)[C@H](CO)NC(=O)[C@@H](N)Cc1cnc[nH]1)C(C)C)[C@@H](C)O)[C@H](C)O)C(C)C)C(=O)N[C@@H](CC(C)C)C(=O)N[C@@H](CC(N)=O)C(N)=O [VIP [D-Thr11]]
pKi (VIP peptides [1]): 7.26 | pKi (VIP peptides [3]): 7.26 and 7.04 and 6.96

H-HADAVFTDNYTRLRKQMAVKKYLNSILN-NH2 [VIP Ala2]
pKi (VIP peptides [1]): 8.59 | pKi (VIP peptides [3]): 9.37 and 8.44 and 8.57

CC[C@H](C)[C@H](NC(=O)[C@H](CO)NC(=O)[C@H](CC(N)=O)NC(=O)[C@H](CC(C)C)NC(=O)[C@H](Cc1ccc(O)cc1)NC(=O)[C@H](CCCCN)NC(=O)[C@H](CCCCN)NC(=O)[C@@H](NC(=O)[C@H](C)NC(=O)[C@H](CCSC)NC(=O)[C@H](CCC(N)=O)NC(=O)[C@H](CCCCN)NC(=O)[C@H](CCCN=C(N)N)NC(=O)[C@H](CC(C)C)NC(=O)[C@H](CCCN=C(N)N)NC(=O)[C@@H](NC(=O)[C@H](Cc1ccc(O)cc1)NC(=O)[C@H](CC(N)=O)NC(=O)[C@@H](CC(=O)O)NC(=O)[C@@H](NC(=O)[C@H](Cc1ccccc1)NC(=O)[C@@H](NC(=O)[C@H](C)NC(=O)[C@H](CC(=O)O)NC(=O)[C@H](CO)NC(=O)[C@@H](N)Cc1cnc[nH]1)C(C)C)[C@@H](C)O)[C@@H](C)O)C(C)C)C(=O)N[C@@H](CC(C)C)C(=O)N[C@@H](CC(N)=O)C(N)=O [VIP [D-Asp8]]
pKi (VIP peptides [1]): 6.56 | pKi (VIP peptides [3]): 6.96 and 6.86 and 6.75

CC[C@H](C)[C@H](NC(=O)[C@H](CO)NC(=O)[C@H](CC(N)=O)NC(=O)[C@H](CC(C)C)NC(=O)[C@H](Cc1ccc(O)cc1)NC(=O)[C@@H](CCCCN)NC(=O)[C@H](CCCCN)NC(=O)[C@@H](NC(=O)[C@H](C)NC(=O)[C@H](CCSC)NC(=O)[C@H](CCC(N)=O)NC(=O)[C@H](CCCCN)NC(=O)[C@H](CCCN=C(N)N)NC(=O)[C@H](CC(C)C)NC(=O)[C@H](CCCN=C(N)N)NC(=O)[C@@H](NC(=O)[C@H](Cc1ccc(O)cc1)NC(=O)[C@H](CC(N)=O)NC(=O)[C@H](CC(=O)O)NC(=O)[C@@H](NC(=O)[C@H](Cc1ccccc1)NC(=O)[C@@H](NC(=O)[C@H](C)NC(=O)[C@H](CC(=O)O)NC(=O)[C@H](CO)NC(=O)[C@@H](N)Cc1cnc[nH]1)C(C)C)[C@@H](C)O)[C@@H](C)O)C(C)C)C(=O)N[C@@H](CC(C)C)C(=O)N[C@@H](CC(N)=O)C(N)=O [VIP [D-Lys21]]
pKi (VIP peptides [1]): 7.00 | pKi (VIP peptides [3]): 7.03 and 6.93 and 6.98

H-HSDAVFTANYTRLRKQMAVKKYLNSILN-NH2 [VIP Ala8]
pKi (VIP peptides [1]): 8.92 | pKi (VIP peptides [3]): 9.77 and 8.80 and 8.92

CC[C@H](C)[C@H](NC(=O)[C@H](CO)NC(=O)[C@H](CC(N)=O)NC(=O)[C@H](CC(C)C)NC(=O)[C@H](Cc1ccc(O)cc1)NC(=O)[C@H](CCCCN)NC(=O)[C@H](CCCCN)NC(=O)[C@@H](NC(=O)[C@@H](C)NC(=O)[C@H](CCSC)NC(=O)[C@H](CCC(N)=O)NC(=O)[C@H](CCCCN)NC(=O)[C@H](CCCN=C(N)N)NC(=O)[C@H](CC(C)C)NC(=O)[C@H](CCCN=C(N)N)NC(=O)[C@@H](NC(=O)[C@H](Cc1ccc(O)cc1)NC(=O)[C@H](CC(N)=O)NC(=O)[C@H](CC(=O)O)NC(=O)[C@@H](NC(=O)[C@H](Cc1ccccc1)NC(=O)[C@@H](NC(=O)[C@H](C)NC(=O)[C@H](CC(=O)O)NC(=O)[C@H](CO)NC(=O)[C@@H](N)Cc1cnc[nH]1)C(C)C)[C@@H](C)O)[C@@H](C)O)C(C)C)C(=O)N[C@@H](CC(C)C)C(=O)N[C@@H](CC(N)=O)C(N)=O [VIP [D-Ala18]]
pKi (VIP peptides [1]): 7.75 | pKi (VIP peptides [3]): 8.46 and 7.81 and 7.92

H-HSDAVFTDNYTRLRAQMAVKKYLNSILN-NH2 [VIP Ala15]
pKi (VIP peptides [1]): 8.72 | pKi (VIP peptides [3]): 8.68 and 7.79 and 7.80
